Measured values: patent publication US20260273074A1, “FERRITIN-TARGETING PROTACS AND METHODS OF INDUCING PYROPTOSIS” (Wisconsin Alumni Research Foundation, priority 2023, published 2026)

Key:
B16F10 cells = test: ROS detection with DCFH-DA; assay type: cell-based, murine; conditions: 5 μM, 8 h, compared to DeFer-2epi and VHL ligand plus OA
Method: ROS detection: DCFH-DA was used to evaluate the generation of intracellular ROS in cancer cells. 5×10^4 B16F10 cells were seeded in confocal dishes and cultured for 24 h at 37° C. […] After incubation for 8 h, cells were stained with DCFH-DA (10 μM) for 30 min. Finally, the cells were washed with PBS and subjected to Leica SP8 Confocal WLL STED Microscope for observation.

ferritin and VHL = biological target: T1, ferritin and VHL (Mus musculus, UniProt P09528+P29391+P40338); test: Co-immunoprecipitation of ferritin with anti-VHL antibody (ternary complex formation); assay type: cell-based, murine; conditions: B16F10 cells, 5 μM, 2 h
T1 construct: endogenous in cells; host or cells: B16F10 (murine melanoma)
T1 sequence (P09528 2-182 limits assumed): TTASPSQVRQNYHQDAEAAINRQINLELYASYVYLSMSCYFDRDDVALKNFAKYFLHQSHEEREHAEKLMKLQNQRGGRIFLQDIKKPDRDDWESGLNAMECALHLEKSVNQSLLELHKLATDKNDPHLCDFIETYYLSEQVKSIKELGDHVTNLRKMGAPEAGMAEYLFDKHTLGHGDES
T1 sequence (P29391 2-183 limits assumed): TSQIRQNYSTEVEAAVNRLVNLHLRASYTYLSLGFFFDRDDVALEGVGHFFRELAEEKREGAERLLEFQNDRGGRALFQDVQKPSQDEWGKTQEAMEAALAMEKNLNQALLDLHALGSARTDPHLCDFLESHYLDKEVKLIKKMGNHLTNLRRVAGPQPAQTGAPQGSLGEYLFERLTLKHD
T1 sequence (P40338 whole entry): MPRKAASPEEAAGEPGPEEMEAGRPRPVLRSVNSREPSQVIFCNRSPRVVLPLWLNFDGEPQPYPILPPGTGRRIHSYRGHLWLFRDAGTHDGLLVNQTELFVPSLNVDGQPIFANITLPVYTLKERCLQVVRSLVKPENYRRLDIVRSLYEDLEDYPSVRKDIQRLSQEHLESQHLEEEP
T1 sequence (P62869 whole entry partner): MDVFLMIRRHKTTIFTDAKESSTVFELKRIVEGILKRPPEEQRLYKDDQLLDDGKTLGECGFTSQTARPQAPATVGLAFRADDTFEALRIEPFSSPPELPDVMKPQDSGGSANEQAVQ
T1 sequence (P83940 whole entry partner): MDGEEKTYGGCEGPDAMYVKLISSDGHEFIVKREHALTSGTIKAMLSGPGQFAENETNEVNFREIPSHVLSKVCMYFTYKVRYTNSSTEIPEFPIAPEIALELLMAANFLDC
Method: Co-Immunoprecipitation assay: B16F10 cells were seeded in T75 cell culture flasks (2×10^6 cells per well) and cultured for 24 h. […] After incubation for 2 h, cells were washed with cold PBS and lysed on ice with IP lysis buffer (50 mM Tris-HCl, pH 7.4; 150 mM NaCl; 2 mM EDTA; 1% NP-40) containing phenylmethylsulfonyl fluoride (PMSF, 1 mM) and the phosphatase inhibitor cocktail for 30 min. The lysates were collected and centrifuged at 10,000 g for 10 minutes at 4° C. On the one hand, 10 μL of lysate supernatants were saved as the input samples. On the other hand, 25 μL of magnetic beads was added to each supernatant in microcentrifuge tubes, and the resulting mixtures were incubated at 4° C. with gentle rotation for 30 min. Next, the sample-containing tube was placed on a magnetic rack for 1 minute, and the supernatant was transferred into a new microcentrifuge tube placed on ice, serving as the precleared samples. The total proteins in the precleared samples were quantified through the BCA assay. Each precleared lysate was added an appropriate amount of mouse monoclonal IgG1 κ anti-VHL antibody (sc-135657, Santa Cruz Biotechnology) and then incubated at 4° C. for 2 hours with gentle rotation. After that, the pre-washed magnetic bead (equal to 25 μL of magnetic beads) was added to each sample. The resulting mixtures were incubated at room temperature for 1 h with gentle rotation. […]

Structure (SMILES): CCCCCCCCC=CCCCCCCCC(=O)NCCCC(=O)NC(C(=O)N1CC(O)CC1C(=O)NCc1ccc(-c2scnc2C)cc1)C(C)(C)C (centres unmarked) [DeFer-2]
- ROS level (B16F10 cells): sharp rise in the ROS level
- ferritin co-precipitated with VHL (ferritin and VHL): could induce ferritin co-precipitated with VHL
